How the values were obtained:
[1] = biological target: Membrane-associated tyrosine- and threonine-specific cdc2-inhibitory kinase (Homo sapiens) (UniProt Q99640); conditions: Compound concentration 100.0 nM
[2] = biological target: Ribosomal protein S6 kinase alpha-3 (Homo sapiens) (UniProt P51812); conditions: Compound concentration 100.0 nM
[3] = biological target: Wee1-like protein kinase 2 (Homo sapiens) (UniProt P0C1S8); conditions: Compound concentration 100.0 nM
[4] = biological target: Activin receptor type-1 (Homo sapiens) (UniProt Q04771); conditions: Compound concentration 100.0 nM
[5] = biological target: Tyrosine-protein kinase Tec (Homo sapiens) (UniProt P42680); conditions: Compound concentration 100.0 nM
Tyrosine-protein kinase Tec (Homo sapiens), sequence (P42680 whole entry): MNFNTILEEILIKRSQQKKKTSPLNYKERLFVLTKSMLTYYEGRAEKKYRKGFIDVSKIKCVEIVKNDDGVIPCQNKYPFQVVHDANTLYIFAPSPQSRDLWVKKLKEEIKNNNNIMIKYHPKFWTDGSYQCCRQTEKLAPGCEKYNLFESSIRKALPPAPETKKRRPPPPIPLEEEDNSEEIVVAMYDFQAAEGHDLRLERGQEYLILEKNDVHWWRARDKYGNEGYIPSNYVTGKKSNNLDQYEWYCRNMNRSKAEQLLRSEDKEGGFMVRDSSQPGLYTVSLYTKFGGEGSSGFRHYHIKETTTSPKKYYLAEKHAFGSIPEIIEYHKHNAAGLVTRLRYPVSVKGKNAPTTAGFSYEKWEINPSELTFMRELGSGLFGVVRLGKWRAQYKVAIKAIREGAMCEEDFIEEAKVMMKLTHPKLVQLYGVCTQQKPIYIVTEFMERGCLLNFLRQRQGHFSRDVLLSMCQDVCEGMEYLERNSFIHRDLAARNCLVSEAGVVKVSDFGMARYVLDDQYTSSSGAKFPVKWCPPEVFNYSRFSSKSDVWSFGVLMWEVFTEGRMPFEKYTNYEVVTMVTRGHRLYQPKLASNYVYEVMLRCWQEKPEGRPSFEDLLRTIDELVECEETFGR

[6] = biological target: Sodium-dependent dopamine transporter (Homo sapiens) (UniProt Q01959); conditions: Compound concentration 10.0 uM
[7] = biological target: Cyclin-dependent kinase 9 (Homo sapiens) (UniProt P50750); conditions: Compound concentration 100.0 nM
[8] = biological target: Mitogen-activated protein kinase 7 (Homo sapiens) (UniProt Q13164); conditions: Compound concentration 100.0 nM
[9] = system: Mast/stem cell growth factor receptor Kit (Homo sapiens), P10721 [D816V]; conditions: Compound concentration 100.0 nM
Mast/stem cell growth factor receptor Kit (Homo sapiens), P10721 [D816V], sequence (P10721 whole entry D816V): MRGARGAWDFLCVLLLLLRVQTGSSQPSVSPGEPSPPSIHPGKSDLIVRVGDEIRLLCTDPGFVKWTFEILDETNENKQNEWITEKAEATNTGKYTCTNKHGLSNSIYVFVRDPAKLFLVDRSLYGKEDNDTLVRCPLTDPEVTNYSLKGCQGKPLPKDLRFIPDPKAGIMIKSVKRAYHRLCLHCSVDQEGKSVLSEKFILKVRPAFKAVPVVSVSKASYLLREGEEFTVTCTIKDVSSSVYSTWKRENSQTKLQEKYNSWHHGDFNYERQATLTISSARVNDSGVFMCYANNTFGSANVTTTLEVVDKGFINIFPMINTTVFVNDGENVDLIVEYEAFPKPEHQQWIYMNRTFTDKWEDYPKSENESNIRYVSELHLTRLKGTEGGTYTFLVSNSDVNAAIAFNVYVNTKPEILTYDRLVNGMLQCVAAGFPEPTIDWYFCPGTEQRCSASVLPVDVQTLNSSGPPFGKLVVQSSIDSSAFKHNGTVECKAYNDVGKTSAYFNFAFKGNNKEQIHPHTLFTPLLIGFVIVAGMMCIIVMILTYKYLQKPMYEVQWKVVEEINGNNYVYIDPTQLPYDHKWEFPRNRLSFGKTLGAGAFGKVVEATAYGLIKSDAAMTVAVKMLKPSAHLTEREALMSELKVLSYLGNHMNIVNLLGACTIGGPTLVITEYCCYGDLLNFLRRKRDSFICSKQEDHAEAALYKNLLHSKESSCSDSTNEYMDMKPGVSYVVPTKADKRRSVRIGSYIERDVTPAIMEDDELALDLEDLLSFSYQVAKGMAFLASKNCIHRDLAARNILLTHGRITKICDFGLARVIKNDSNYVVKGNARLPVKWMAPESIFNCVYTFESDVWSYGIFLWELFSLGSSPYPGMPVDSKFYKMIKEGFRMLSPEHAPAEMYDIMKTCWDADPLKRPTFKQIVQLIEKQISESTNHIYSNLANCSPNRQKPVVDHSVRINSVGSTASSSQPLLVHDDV

[10] = system: Mast/stem cell growth factor receptor Kit (Homo sapiens), P10721 [L576P]; conditions: Compound concentration 100.0 nM
[11] = biological target: Ephrin type-A receptor 3 (Homo sapiens) (UniProt P29320); conditions: Compound concentration 100.0 nM
[12] = biological target: Vascular endothelial growth factor receptor 2 (Homo sapiens) (UniProt P35968); conditions: Compound concentration 100.0 nM
[13] = system: Receptor-type tyrosine-protein kinase FLT3 (Homo sapiens), P36888 [D835V]; conditions: Compound concentration 100.0 nM
[14] = biological target: Tyrosine-protein kinase JAK1 (Homo sapiens) (UniProt P23458); conditions: Compound concentration 100.0 nM
Tyrosine-protein kinase JAK1 (Homo sapiens), sequence (P23458 whole entry): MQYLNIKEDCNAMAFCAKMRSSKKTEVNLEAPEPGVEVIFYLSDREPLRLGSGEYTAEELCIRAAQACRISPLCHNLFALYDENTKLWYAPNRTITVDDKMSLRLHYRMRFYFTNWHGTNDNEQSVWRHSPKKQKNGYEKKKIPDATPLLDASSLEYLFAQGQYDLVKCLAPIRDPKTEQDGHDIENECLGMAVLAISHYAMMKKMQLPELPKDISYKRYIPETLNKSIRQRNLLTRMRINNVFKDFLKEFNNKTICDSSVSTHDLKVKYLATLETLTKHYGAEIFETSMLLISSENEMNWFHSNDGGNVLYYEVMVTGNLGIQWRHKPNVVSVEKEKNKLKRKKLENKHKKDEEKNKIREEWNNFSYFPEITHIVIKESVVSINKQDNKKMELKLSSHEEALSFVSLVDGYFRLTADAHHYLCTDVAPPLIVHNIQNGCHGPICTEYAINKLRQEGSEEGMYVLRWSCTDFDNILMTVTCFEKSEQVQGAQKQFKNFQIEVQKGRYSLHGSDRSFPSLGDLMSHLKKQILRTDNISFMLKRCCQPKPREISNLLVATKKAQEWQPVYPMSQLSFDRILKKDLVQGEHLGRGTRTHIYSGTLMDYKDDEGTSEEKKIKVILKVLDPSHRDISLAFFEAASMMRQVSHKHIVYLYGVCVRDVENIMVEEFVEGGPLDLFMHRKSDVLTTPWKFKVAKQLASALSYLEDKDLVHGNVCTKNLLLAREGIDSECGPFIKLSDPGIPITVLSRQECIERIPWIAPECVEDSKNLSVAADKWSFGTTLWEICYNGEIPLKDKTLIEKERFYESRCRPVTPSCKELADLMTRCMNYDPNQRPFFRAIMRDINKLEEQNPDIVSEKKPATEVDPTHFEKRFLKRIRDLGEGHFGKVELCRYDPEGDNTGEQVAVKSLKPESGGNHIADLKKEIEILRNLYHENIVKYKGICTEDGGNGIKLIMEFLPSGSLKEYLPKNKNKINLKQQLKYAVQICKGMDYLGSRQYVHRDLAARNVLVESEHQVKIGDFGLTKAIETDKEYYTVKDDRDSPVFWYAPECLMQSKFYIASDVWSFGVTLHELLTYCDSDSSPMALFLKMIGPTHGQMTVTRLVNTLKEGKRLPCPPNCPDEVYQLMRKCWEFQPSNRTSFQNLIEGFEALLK

[15] = system: Epidermal growth factor receptor (Homo sapiens), P00533 [L858R]; conditions: Compound concentration 100.0 nM
[16] = system: Phosphatidylinositol 4,5-bisphosphate 3-kinase catalytic subunit alpha isoform (Homo sapiens), P42336 [E545K]; conditions: Compound concentration 100.0 nM
[17] = biological target: Cyclin-dependent kinase 17 (Homo sapiens) (UniProt Q00537); conditions: Compound concentration 100.0 nM
[18] = biological target: Mitogen-activated protein kinase kinase kinase 13 (Homo sapiens) (UniProt O43283); conditions: Compound concentration 100.0 nM
[19] = biological target: Rhodopsin kinase GRK7 (Homo sapiens) (UniProt Q8WTQ7); conditions: Compound concentration 100.0 nM
[20] = system: Hepatocyte growth factor receptor (Homo sapiens), P08581 [Y1235D]; conditions: Compound concentration 100.0 nM
[21] = system: Phosphatidylinositol 4,5-bisphosphate 3-kinase catalytic subunit alpha isoform (Homo sapiens), P42336 [E542K]; conditions: Compound concentration 100.0 nM
Phosphatidylinositol 4,5-bisphosphate 3-kinase catalytic subunit alpha isoform (Homo sapiens), P42336 [E542K], sequence (P42336 whole entry E542K, the tested form may be a part, canonical isoform): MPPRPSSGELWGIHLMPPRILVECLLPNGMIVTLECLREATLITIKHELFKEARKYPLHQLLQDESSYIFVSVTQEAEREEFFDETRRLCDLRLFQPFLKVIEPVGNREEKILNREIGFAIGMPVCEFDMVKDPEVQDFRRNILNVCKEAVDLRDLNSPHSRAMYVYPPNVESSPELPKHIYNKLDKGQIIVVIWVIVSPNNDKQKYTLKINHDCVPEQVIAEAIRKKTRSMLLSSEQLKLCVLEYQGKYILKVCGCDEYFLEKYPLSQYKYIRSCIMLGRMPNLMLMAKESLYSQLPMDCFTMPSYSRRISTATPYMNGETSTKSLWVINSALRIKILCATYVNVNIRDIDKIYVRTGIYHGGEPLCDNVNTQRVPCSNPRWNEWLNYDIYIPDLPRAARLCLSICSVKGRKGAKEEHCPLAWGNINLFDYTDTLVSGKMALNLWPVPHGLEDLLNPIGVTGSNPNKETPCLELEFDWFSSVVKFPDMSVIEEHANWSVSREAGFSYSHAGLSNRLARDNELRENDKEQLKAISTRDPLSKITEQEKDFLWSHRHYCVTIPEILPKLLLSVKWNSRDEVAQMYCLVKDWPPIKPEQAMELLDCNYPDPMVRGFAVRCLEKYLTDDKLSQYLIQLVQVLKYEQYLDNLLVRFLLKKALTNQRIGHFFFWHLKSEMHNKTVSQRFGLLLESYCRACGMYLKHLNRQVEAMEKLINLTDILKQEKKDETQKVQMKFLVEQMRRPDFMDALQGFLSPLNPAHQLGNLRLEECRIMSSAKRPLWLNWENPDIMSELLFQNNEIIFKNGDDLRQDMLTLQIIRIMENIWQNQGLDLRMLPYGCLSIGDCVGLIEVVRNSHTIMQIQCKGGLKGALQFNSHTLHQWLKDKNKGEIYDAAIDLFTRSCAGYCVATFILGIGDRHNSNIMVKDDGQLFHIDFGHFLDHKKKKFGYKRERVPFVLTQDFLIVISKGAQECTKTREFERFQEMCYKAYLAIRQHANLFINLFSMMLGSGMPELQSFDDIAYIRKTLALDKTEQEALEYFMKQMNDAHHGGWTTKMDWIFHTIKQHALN

[22] = biological target: Epithelial discoidin domain-containing receptor 1 (Homo sapiens) (UniProt Q08345); conditions: Compound concentration 100.0 nM
Epithelial discoidin domain-containing receptor 1 (Homo sapiens), sequence (Q08345 whole entry, the tested form may be a part): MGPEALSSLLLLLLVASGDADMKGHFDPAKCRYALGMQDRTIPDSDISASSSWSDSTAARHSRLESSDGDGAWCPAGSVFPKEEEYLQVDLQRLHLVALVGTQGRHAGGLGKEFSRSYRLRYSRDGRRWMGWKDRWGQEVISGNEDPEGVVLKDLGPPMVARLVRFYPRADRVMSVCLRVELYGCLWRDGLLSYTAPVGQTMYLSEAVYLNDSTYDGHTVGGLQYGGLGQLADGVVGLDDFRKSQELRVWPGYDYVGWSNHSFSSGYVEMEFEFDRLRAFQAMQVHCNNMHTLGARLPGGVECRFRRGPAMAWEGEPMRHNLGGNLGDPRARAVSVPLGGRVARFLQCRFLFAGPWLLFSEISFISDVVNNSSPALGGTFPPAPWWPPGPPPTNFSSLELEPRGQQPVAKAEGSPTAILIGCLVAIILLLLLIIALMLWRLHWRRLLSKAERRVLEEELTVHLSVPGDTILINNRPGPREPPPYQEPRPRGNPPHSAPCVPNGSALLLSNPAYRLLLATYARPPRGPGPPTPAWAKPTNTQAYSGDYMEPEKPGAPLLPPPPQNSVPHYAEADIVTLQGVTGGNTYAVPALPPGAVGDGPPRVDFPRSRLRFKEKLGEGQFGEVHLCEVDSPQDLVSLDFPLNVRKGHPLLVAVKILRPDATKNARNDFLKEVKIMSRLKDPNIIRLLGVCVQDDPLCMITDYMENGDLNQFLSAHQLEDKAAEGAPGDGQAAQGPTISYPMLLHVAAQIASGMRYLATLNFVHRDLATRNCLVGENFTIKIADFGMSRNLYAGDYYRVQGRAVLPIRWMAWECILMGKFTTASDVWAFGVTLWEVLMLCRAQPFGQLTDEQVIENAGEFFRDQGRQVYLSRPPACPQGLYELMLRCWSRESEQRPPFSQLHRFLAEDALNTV

[23] = system: Tyrosine-protein kinase ABL1 (Homo sapiens), P00519 [T315I]; conditions: Compound concentration 100.0 nM
[24] = biological target: Serine/threonine-protein kinase WNK3 (Homo sapiens) (UniProt Q9BYP7); conditions: Compound concentration 100.0 nM
[25] = biological target: Serine/threonine-protein kinase LATS2 (Homo sapiens) (UniProt Q9NRM7); conditions: Compound concentration 100.0 nM
[26] = biological target: Ephrin type-A receptor 8 (Homo sapiens) (UniProt P29322); conditions: Compound concentration 100.0 nM
[27] = biological target: Phosphatidylinositol 3-kinase C2 domain-containing subunit gamma (Homo sapiens) (UniProt O75747); conditions: Compound concentration 100.0 nM
[28] = biological target: Macrophage colony-stimulating factor 1 receptor (Homo sapiens) (UniProt P07333); conditions: Compound concentration 100.0 nM
[29] = biological target: Receptor-interacting serine/threonine-protein kinase 1 (Homo sapiens) (UniProt Q13546); conditions: Compound concentration 100.0 nM
[30] = biological target: Cytoplasmic tyrosine-protein kinase BMX (Homo sapiens) (UniProt P51813); conditions: Compound concentration 100.0 nM
[31] = biological target: Serine/threonine-protein kinase mTOR (Homo sapiens) (UniProt P42345); conditions: Compound concentration 100.0 nM
[32] = biological target: Mitogen-activated protein kinase kinase kinase 15 (Homo sapiens) (UniProt Q6ZN16); conditions: Compound concentration 100.0 nM
[33] = biological target: Ephrin type-B receptor 4 (Homo sapiens) (UniProt P54760); conditions: Compound concentration 100.0 nM
[34] = biological target: Calcium/calmodulin-dependent protein kinase type II subunit delta (Homo sapiens) (UniProt Q13557); conditions: Compound concentration 100.0 nM
[35] = system: Phosphatidylinositol 4,5-bisphosphate 3-kinase catalytic subunit alpha isoform (Homo sapiens), P42336 [H1047L]; conditions: Compound concentration 100.0 nM
[36] = biological target: Cyclin-dependent kinase 11A (Homo sapiens) (UniProt Q9UQ88); conditions: Compound concentration 100.0 nM
[37] = biological target: Ribosomal protein S6 kinase alpha-4 (Homo sapiens) (UniProt O75676); conditions: Compound concentration 100.0 nM
[38] = biological target: Misshapen-like kinase 1 (Homo sapiens) (UniProt Q8N4C8); conditions: Compound concentration 100.0 nM
[39] = biological target: Cyclin-dependent kinase 18 (Homo sapiens) (UniProt Q07002); conditions: Compound concentration 100.0 nM
[40] = biological target: Serine/threonine-protein kinase SIK1 (Homo sapiens) (UniProt P57059); conditions: Compound concentration 100.0 nM
[41] = biological target: Alpha-2A adrenergic receptor (Homo sapiens) (UniProt P08913); conditions: Compound concentration 10.0 uM
[42] = biological target: Tyrosine-protein kinase Fes/Fps (Homo sapiens) (UniProt P07332); conditions: Compound concentration 100.0 nM
[43] = biological target: Ephrin type-A receptor 2 (Homo sapiens) (UniProt P29317); conditions: Compound concentration 100.0 nM
[44] = biological target: AP2-associated protein kinase 1 (Homo sapiens) (UniProt Q2M2I8); conditions: Compound concentration 100.0 nM
[45] = biological target: Serine/threonine-protein kinase 10 (Homo sapiens) (UniProt O94804); conditions: Compound concentration 100.0 nM

Q: For `O=C(NCCCC1CCCCC1)c1ccc(CNC(=O)c2cnn(-c3ccccc3)c2C(F)(F)F)cc1` [SR-321], which residual activity [1] is on record?
A: 77%

Q: And the residual activity [2]?
A: 100%

Q: What about the residual activity [3] of the same molecule?
A: 100%

Q: What about the residual activity [4] of the same molecule?
A: 100%

Q: What about the residual activity [5] of the same molecule?
A: 94%

Q: What about the inhibition [6] of the same molecule?
A: 22.3%

Q: And the residual activity [7]?
A: 100%

Q: And the residual activity [8]?
A: 100%

Q: What about the residual activity [9] of the same molecule?
A: 100%

Q: And the residual activity [10]?
A: 100%

Q: What about the residual activity [11] of the same molecule?
A: 91%

Q: And the residual activity [12]?
A: 97%

Q: And the residual activity [13]?
A: 88%

Q: And the residual activity [14]?
A: 89%

Q: What about the residual activity [15] of the same molecule?
A: 100%

Q: What about the residual activity [16] of the same molecule?
A: 68%

Q: And the residual activity [17]?
A: 100%

Q: And the residual activity [18]?
A: 100%

Q: And the residual activity [19]?
A: 100%

Q: What about the residual activity [20] of the same molecule?
A: 100%

Q: What about the residual activity [21] of the same molecule?
A: 74%

Q: And the residual activity [22]?
A: 100%

Q: And the residual activity [23]?
A: 80%

Q: And the residual activity [24]?
A: 100%

Q: What about the residual activity [25] of the same molecule?
A: 97%

Q: And the residual activity [26]?
A: 95%

Q: What about the residual activity [27] of the same molecule?
A: 100%

Q: What about the residual activity [28] of the same molecule?
A: 100%

Q: What about the residual activity [29] of the same molecule?
A: 89%

Q: And the residual activity [30]?
A: 75%

Q: What about the residual activity [31] of the same molecule?
A: 100%

Q: And the residual activity [32]?
A: 84%

Q: What about the residual activity [33] of the same molecule?
A: 95%

Q: What about the residual activity [34] of the same molecule?
A: 100%

Q: What about the residual activity [35] of the same molecule?
A: 86%

Q: And the residual activity [36]?
A: 100%

Q: What about the residual activity [37] of the same molecule?
A: 90%

Q: What about the residual activity [38] of the same molecule?
A: 97%

Q: What about the residual activity [39] of the same molecule?
A: 100%

Q: And the residual activity [40]?
A: 91%

Q: And the inhibition [41]?
A: -2.46%

Q: And the residual activity [42]?
A: 100%

Q: And the residual activity [43]?
A: 80%

Q: What about the residual activity [44] of the same molecule?
A: 100%

Q: And the residual activity [45]?
A: 100%

Q: How did the residual activity [1] turn out when `Nc1c(C(=O)NCc2ccc(C(=O)NCCCC3CCCCC3)cc2)cnn1-c1ccccc1` [SR-318] was run?
A: 100%

Q: And the residual activity [2]?
A: 92%

Q: What about the residual activity [3] of the same molecule?
A: 100%

Q: And the residual activity [4]?
A: 100%

Q: And the residual activity [5]?
A: 100%

Q: And the inhibition [6]?
A: 26.8%

Q: And the residual activity [7]?
A: 100%

Q: What about the residual activity [8] of the same molecule?
A: 78%

Q: What about the residual activity [9] of the same molecule?
A: 100%

Q: And the residual activity [10]?
A: 73%

Q: What about the residual activity [11] of the same molecule?
A: 100%

Q: And the residual activity [12]?
A: 100%

Q: What about the residual activity [13] of the same molecule?
A: 100%

Q: And the residual activity [14]?
A: 100%

Q: And the residual activity [15]?
A: 100%

Q: And the residual activity [16]?
A: 91%

Q: And the residual activity [17]?
A: 78%

Q: And the residual activity [18]?
A: 100%

Q: And the residual activity [19]?
A: 100%

Q: And the residual activity [20]?
A: 94%

Q: What about the residual activity [21] of the same molecule?
A: 100%

Q: What about the residual activity [22] of the same molecule?
A: 43%

Q: And the residual activity [23]?
A: 100%

Q: And the residual activity [24]?
A: 92%

Q: What about the residual activity [25] of the same molecule?
A: 100%

Q: What about the residual activity [26] of the same molecule?
A: 100%

Q: What about the residual activity [27] of the same molecule?
A: 100%

Q: And the residual activity [28]?
A: 91%

Q: And the residual activity [29]?
A: 100%

Q: And the residual activity [30]?
A: 100%

Q: What about the residual activity [31] of the same molecule?
A: 100%

Q: What about the residual activity [32] of the same molecule?
A: 100%

Q: And the residual activity [33]?
A: 100%

Q: What about the residual activity [34] of the same molecule?
A: 100%

Q: And the residual activity [35]?
A: 100%

Q: What about the residual activity [36] of the same molecule?
A: 100%

Q: What about the residual activity [37] of the same molecule?
A: 98%

Q: And the residual activity [38]?
A: 100%

Q: What about the residual activity [39] of the same molecule?
A: 100%

Q: And the residual activity [40]?
A: 100%

Q: And the inhibition [41]?
A: 4.08%

Q: What about the residual activity [42] of the same molecule?
A: 100%

Q: And the residual activity [43]?
A: 100%

Q: What about the residual activity [44] of the same molecule?
A: 100%

Q: What about the residual activity [45] of the same molecule?
A: 100%

From ChEMBL document CHEMBL4507315 (2021)
